Data: patent publication US20240197596A1, “COMPOUNDS USEFUL AS HAIR DYES” (National University of Singapore, priority 2021, published 2024)
Converted amounts (≈) assume the structure as drawn. Each block holds one molecule with its values, some of them ahead of it.

Experiments:
[1] = Thermodynamic solubility assay (modified shake flask, LC-MS/MS); conditions: for solubility at 24 h: 25 °C, pH 7, water, thermodynamic from solid
Experimental: The aqueous solubilities (pH=7) of these compounds were measured using the modified shake flask method and LC-MS/MS. Each hair dye was added into a 2 mL glass vial containing Milli-Q water (1 mL) to form the precipitates at 25° C. Then the mixture was subjected to a solubility-equilibrium stage. The vials were shaken at 300 rpm at 25° C. for 24 h. The precipitate was separated by centrifugation at 23,000 g for 20 min. Subsequently, 0.5 mL of supernatant was transferred into a 1 mL Eppendorf tube, and it was centrifuged again as mentioned above. The supernatant was then used for LC-MS/MS analysis.
The mass spectrometric analysis was performed by use of a AB SCIEX QTRAP 5500 tandem mass spectrometry (MS/MS) system (AB SCIEX, Framingham, MA, USA) operating in triple quadrupole positive mode (ESI+) equipped with an AB Sciex Turbo Ion Spray interface. Acquisition and analysis of data were performed with Analyst software ver. 1.4.2 (Applied Biosystems) which performed all chromatographic peak integration. For each hair dye, a standard curve consisting of four concentrations was established.
Solvent A was composed of 0.1% [v/v] formic acid in Milli-Q water while solvent B was composed of 0.1% [v/v] formic acid in acetonitrile. A mobile phase gradient pumped at 0.6 mL/min was used to elute the hair dyes from the column. The column was equilibrated for 1 min resulting in a total run time of 5 min. The injection volume was 5.0 μL for all derivatives. To prevent compound accumulation on the needle, 50% methanol in ACN was used as needle wash for 30 s per sample.

[2] = test system: THP-1 cells; assay: MTT assay on THP-1 cells (CV75); type: cell-based, human
Experimental: THP-1 (human acute monocytic leukaemia cell line) cell suspension was adjusted to 1×10^5 cells per well and seeded in 96-well plates. The plate was incubated at 37° C. with 5% CO2. After 24 h, 10 mM stock solutions of N1-N13 were prepared in autoclaved milli-Q water. A series of concentrations diluted in media was prepared and added to the wells. Each concentration was performed in 6-replicates, and seeded wells with only media and no compound were used as controls while wells with only media were used as blanks. The plate was incubated for 24 h, after which 100 μL of MTT reagent was added and the plate was further incubated for 3 h before adding 100 μL of DMSO. Subsequently, the plate was shaken for 20 min, and then absorbance at 570 nm was determined using a Bio-Tek plate reader. Percentage cell viability was calculated and CV75 values were determined.

[3] = test system: CD54; assay: h-CLAT assay, CD54 expression by flow cytometry; type: cell-based, human; conditions: for EC200 for CD54 (lowest concentration inducing % RFI of 200): THP-1 cells, 24 h; for RFI for CD54: at CV75, 24 h
Experimental: (§1) The assay was conducted as per the literature (Toxicol In Vitro, 2006, 20, 767-73). THP-1 cells were cultured in 24-well plates (1×10^6 cells/1 mL/well) with various concentrations of each chemical (N1-N13), +ve control (DNCB), −ve control for 24 h.
(§2) THP-1 cells were cultured in 24-well plates (1×10^6 cells/mL/well) and treated with recommended concentrations of each chemical (N1-N13), positive control (DNCB) or negative control (SLS) for 24 h. THP-1 cells were cultured and treated with 8 doses of N1-N13 based on the CV75 namely, 1.2×CV75, 1×CV75, 1/1.2×CV75, 1/1.2^2×CV75, 1/1.23×CV75, 1/1.24×CV75, 1/1.2^5×CV75 and 1/1.2^6×CV75. After 24 h, cells were transferred to 1.5 mL of microtubes and centrifuged at 450 g, 5 min, 4° C. Supernatant was discarded and cells were washed with 1 mL of FACS buffer (PBS+FBS+HEPES). The cells were centrifuged at 450 g, 5 min, 4° C. 50 μL of Fc block (0.01% of Globlins Cohn fraction II, III) was added and incubated for 10 min at 4° C. The cells were stained with 20 μL APC CD54 (Mouse IgG1, K, BD Biosciences, San Diego, CA, USA), 20 μL FITC CD86 (Mouse IgG1, K, BD Biosciences, San Diego, CA, USA) or their respective isotype controls and incubated for 15 min at room temperature in dark. After incubation, the antibodies were diluted with 200 μl FACS buffer. The cells were washed with 1 mL FACS buffer twice. Further, 200 μL Propidium iodide (PI, 0.625 μg/mL) prepared in FACS buffer was added before the flow cytometry analysis. Flow cytometric analysis was performed with BD LSR Fortessa™ (Becton Dickinson, San Jose, CA, USA) In total, 10,000 living cells were analysed, and data were processed using Flowjo software (v10.6, Ashland, OR, USA). The test concentration providing a cell viability of 75% (CV75) was derived from the dose response curve and was calculated by log-linear interpolation.
(§3) Geometric mean fluorescence intensity (MFI) was measured for CD54^+ and CD86^+ cells separately and percentage relative fluorescence intensity (% RFI), reflective of CD86 and CD54 relative expression was calculated as described below. RFI was not calculated if cell viability fell below 50%.
(§4) All chemicals were tested in three independent experiments. If in two of three independent experiments at any dose exceeded 150% RFI for CD86, or 200% RFI for CD54, the chemicals could be identified as a sensitizer. Otherwise it is identified as a non-sensitizer.

[4] = test system: CD86; assay: h-CLAT assay, CD86 expression by flow cytometry; type: cell-based, human; conditions: for EC150 for CD86 (lowest concentration inducing % RFI of 150): THP-1 cells, 24 h; for RFI for CD86: at CV75, 24 h
Experimental: as §1, §2, §3, §4

[5] = test system: THP-1 cells; assay: h-CLAT assay on THP-1 cells: markers against OECD cut-off, prediction, cell viability; type: cell-based, human; conditions: for CD54 and CD86 marker expression against OECD cut-off: 8 doses based on CV75, 24 h
Experimental: as §1, §2, §3, §4

[6] = test system: HaCaT cells; conditions: data from J Hazard Mat., 2021, 402, 123712; cited from earlier work
[7] = in vivo; cited from earlier work
[8] = data from J Hazard Mat., 2021, 402, 123712, cited from earlier work
[9] = test system: IL-8; conditions: data from J Hazard Mat., 2021, 402, 123712 (FIG. 6); cited from earlier work
[10] = test system: IL-1α; conditions: data from J Hazard Mat., 2021, 402, 123712 (FIG. 6); cited from earlier work
[11] = Milli-Q water, Water Solubility, library of old series (Table 4)
[12] = library of old series (Table 4)

SMILES: COCc1cc(N)ccc1N [ME-PPD, 2-(methoxymethyl)benzene-1,4-diamine]
solubility at 24 h [1, 11]: 78000 µg/mL (≈ 512000 µM)
CV75 (concentration affording 75% cell viability), 1 × CV75 ([2]; THP-1 cells, 24 h): 144.6 µg/mL
EC200 for CD54 (lowest concentration inducing % RFI of 200) [3]: 120.5 µg/mL
EC150 for CD86 (lowest concentration inducing % RFI of 150) [4]: 117.9 µg/mL
CD54 and CD86 marker expression against OECD cut-off [5]: above the recommended threshold
IC50 [6]: 334 µM
PPD-allergic individuals who develop an allergic reaction [7]: approximately 30%
Cumulative amount at 8th hour ([8]; 8 h): 0.519 μg/cm^2
Cumulative amount comparison of PPD vs derivatives ([8]; 8 h): 10.4
Permeated through skin into receptor [8]: 0.0044 % of applied compound dose
Recovered in donor compartment [8]: 89 % of applied compound dose
Recovered in skin [8]: 3.6 % of applied compound dose
Recovered in skin outside diffusion area [8]: 0.0042 % of applied compound dose
Recovered in skin swabs [8]: 0.69 % of applied compound dose
Recovered on parafilm and in washes [8]: 1.84 % of applied compound dose
Total recovery (mean percentage parent compound recovery) [8]: 95 ± 0.79%
release of IL-8 [9]: higher concentrations
release of IL-1α [10]: higher concentrations

SMILES: CCCCC(CC)COc1cc(N)ccc1N (stereo not drawn) [PPD 3, reference compound]
solubility at 24 h [1, 11]: 80 µg/mL (≈ 338 µM)

SMILES: Nc1ccc(N)cc1 [PPD, para-phenylenediamine]
solubility at 24 h [1]: 40000 µg/mL (≈ 370000 µM)
solubility in per cent ([1]; water): 4%
CV75 (concentration affording 75% cell viability), 1 × CV75 ([2]; THP-1 cells, 24 h): 65.4 µg/mL
EC200 for CD54 (lowest concentration inducing % RFI of 200) [3]: 35.0 µg/mL
RFI for CD54 [3]: 270%
EC150 for CD86 (lowest concentration inducing % RFI of 150) [4]: 39.4 µg/mL
RFI for CD86 [4]: 210%
CD54 and CD86 marker expression against OECD cut-off [5]: above the recommended threshold
marker induction, times lower than DNCB ([5]; human, 24 h): 1.6
IC50 [6]: 23.4 µM
Cumulative amount at 8th hour ([8]; 8 h): 5.4 μg/cm^2
Permeated through skin into receptor [8]: 0.038 % of applied compound dose
Recovered in donor compartment [8]: 83 % of applied compound dose
Recovered in skin [8]: 4.3 % of applied compound dose
Recovered in skin outside diffusion area [8]: 0.0050 % of applied compound dose
Recovered in skin swabs [8]: 0.82 % of applied compound dose
Recovered on parafilm and in washes [8]: 2.19 % of applied compound dose
Total recovery (mean percentage parent compound recovery) [8]: 93 ± 0.52%
release of IL-8 [9]: higher concentrations
release of IL-1α [10]: higher concentrations

SMILES: Cc1cc(N)ccc1N [PTD, 2-methylbenzene-1,4-diamine]
solubility at 24 h [1]: 2500 µg/mL (≈ 20500 µM)
CV75 (concentration affording 75% cell viability), 1 × CV75 ([2]; human): 43.4 µg/mL
EC200 for CD54 (lowest concentration inducing % RFI of 200) [3]: 35.35 µg/mL
EC150 for CD86 (lowest concentration inducing % RFI of 150) [4]: 34.3 µg/mL
CD54 and CD86 marker expression against OECD cut-off [5]: above the recommended threshold
IC50 [6]: 73.1 µM
Recovered in donor compartment [8]: 95 % of applied compound dose
Recovered in skin [8]: 2.1 % of applied compound dose
Recovered in skin outside diffusion area [8]: 0.0077 % of applied compound dose
Recovered in skin swabs [8]: 0.48 % of applied compound dose
Recovered on parafilm and in washes [8]: 0.68 % of applied compound dose
Total recovery (mean percentage parent compound recovery) [8]: 99 ± 0.33%
release of IL-8 [9]: higher concentrations
release of IL-1α [10]: higher concentrations

SMILES: CCCCCCOc1cc(N)ccc1N [PPD 4, reference compound]
solubility at 24 h [1, 11]: 80 µg/mL (≈ 384 µM)

SMILES: CCCCCCOC(=O)c1cc(N)ccc1N [PPD15, reference compound]
solubility at 24 h [1, 11]: 10 µg/mL (≈ 42.3 µM)

SMILES: CCCCCCNc1ccc(N)cc1OCCCCCC [PPD16, reference compound]
Water Solubility [1, 12]: Insoluble

SMILES: CCCCCCCCCCCCOS(=O)(=O)[O-].[Na+] [SLS, reference compound]
CV75 (concentration affording 75% cell viability), 1 × CV75 ([2]; THP-1 cells, 24 h): 56.0 µg/mL
CD54 and CD86 marker expression against OECD cut-off [5]: did not express markers

SMILES: O=[N+]([O-])c1ccc(Cl)c([N+](=O)[O-])c1 [DNCB]
CV75 (concentration affording 75% cell viability), 1 × CV75 ([2]; THP-1 cells, 24 h): 3.0 µg/mL
EC200 for CD54 (lowest concentration inducing % RFI of 200) [3]: 1.5 µg/mL
RFI for CD54 [3]: 450%
EC150 for CD86 (lowest concentration inducing % RFI of 150) [4]: 1.4 µg/mL
RFI for CD86 [4]: 326%

Other lines, results leading:

Water Solubility [1, 12]: Insoluble
SMILES: Cc1ccc(CNc2ccc(Nc3ccc(NCc4ccc(C)cc4)cc3)cc2)cc1 [PPD13, reference compound]

solubility at 24 h [1, 11]: 500 µg/mL (≈ 2510 µM)
SMILES: Nc1ccc(Nc2ccc(N)cc2)cc1 [PPD 1, reference compound]

Water Solubility [1, 12]: Insoluble
SMILES: COc1ccc(CNc2ccc(Nc3ccc(NCc4ccc(O)cc4)cc3)cc2)cc1 [PPD12, reference compound]

Water Solubility [1, 12]: Insoluble
SMILES: CCCCCCOc1cc(Nc2ccc(N)cc2)ccc1N [PPD 5, reference compound]

Water Solubility [1, 12]: Insoluble
SMILES: Nc1ccc(CNc2ccc(Nc3ccc(NCc4ccc([N+](=O)[O-])cc4)cc3)cc2)cc1 [PPD11, reference compound]

Water Solubility [1, 12]: Insoluble
SMILES: Nc1ccc(Nc2ccc(Nc3ccc(Nc4ccc(N)cc4)cc3)cc2)cc1 [PPD8, reference compound]

Water Solubility [1, 12]: Insoluble
SMILES: Cc1ccc(CNc2ccc(Nc3ccc(Nc4ccc(N)cc4)cc3)cc2)cc1 [PPD10, reference compound]

Water Solubility [1, 12]: Insoluble
SMILES: Cc1ccc(CNc2ccc(Nc3ccc(N)cc3)cc2)cc1 [PPD9, reference compound]

solubility at 24 h [1, 11]: 100 µg/mL (≈ 344 µM)
SMILES: Nc1ccc(Nc2ccc(Nc3ccc(N)cc3)cc2)cc1 [PPD 2, reference compound]

Water Solubility [1, 12]: Insoluble
SMILES: Oc1ccc(CNc2ccc(Nc3ccc(NCc4ccc(O)cc4)cc3)cc2)cc1 [PPD14, reference compound]

solubility at 24 h [1, 11]: 1 µg/mL (≈ 3.05 µM)
SMILES: CCCCCCOC(=O)c1cc(Nc2ccc(N)cc2)ccc1N [PPD 6, reference compound]

solubility at 24 h [1, 11]: 5 µg/mL (≈ 13 µM)
SMILES: CCCCCCNc1ccc(Nc2ccc(N)cc2)cc1OCCCCCC [PPD7, reference compound]
